Tests used:
Akt phosphorylation = assay: Akt Phosphorylation Assay (western blot), Panc-1; assay type: cell-based, human; settings: at 10 μM, * = activation
How it was run: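 Panc-1 (KRas G12D) cells were treated with compound at 10 μM final (0.3% DMSO) for 6 h at 37 °C, or with serial dilutions for IC50. Cells were either serum-starved overnight in 0.5% FBS and then stimulated with 1.5 ng/ml EGF for 15 min, or kept in 10% FBS without stimulation. Akt Ser473 phosphorylation in lysates was read by western blot.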

IL6 = assay: IL-6 Quantification Assay (ELISA), LPS-stimulated RAW 264.7; assay type: cell-based; design: inhibition: dose or concentration left out as unconfirmed; settings: Mus musculus, RAW264.7; read-out: IL-6: % inh.
TNF-alpha = TNF-alpha Quantification Assay (ELISA), LPS-stimulated RAW 264.7; assay type: cell-based; settings: Mus musculus, RAW264.7; at 10 μM; read-out: TNFα: % inh.
KRas G12D mutant = assay: Ras GTP Binding Domain Inhibition Assay (Ras Superfamily Assay); settings: 20 μM compound; for KRas G12D mutant + SOS: % inh.: with SOS; for KRas G12D mutant: % inh.: without SOS
How it was run: (§1)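 Ni-plate capture of His-tagged protein (10-30 μg/mL, o/n 4° C); cpd 20 μM or dilution series, 1% DMSO, 3 h RT ± Sos 556-1049 last h; 100 nM Cy-labelled GTP 45 min RT; 3× wash; fluorescence read.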

KRas wild type = assay: as above; settings: 20 μM compound; for KRas wild type + SOS: % inh.: with SOS; for KRas wild type: % inh.: without SOS
How it was run: as §1

Rac-1 = biological target: T1, Rac-1 (Homo sapiens, UniProt P63000); assay: as above; settings: read-out: Rac-1: % inh.
T1 construct: made in house
How it was run: as §1

Row | Compound | % inh of Akt phosphorylation in Panc-1 (Akt phosphorylation) | inhibition (IL6) | inhibition at 10 µM (TNF-alpha) | KRas G12D mutant + SOS: % inh. (KRas G12D mutant) | KRas G12D mutant: % inh. (KRas G12D mutant) | KRas wild type + SOS: % inh. (KRas wild type) | KRas wild type: % inh. (KRas wild type) | inhibition at 20 µM (Rac-1)
1 | COC1CCCN(c2nc(-c3nccn3C)nn3cc(-c4ccn(C(C)C)n4)c(-c4ccccc4)c23)C1 (racemic) [Compound 21, rac 6-(1-Isopropyl-1H-pyrazol-3-yl)-4-(3-methoxypiperidin-1-yl)-2-(1-methyl-1H-imidazol-2-yl)-5-phenylpyrrolo[2,1-f][1,2,4]triazine] | C* (46-84% activation) | 1 to 24% | 0% | 0 (0 = 0% inhibition) | B (B = 26-49% inhibition) | A (A = 1-25% inhibition) | A (A = 1-25% inhibition) | 0%
2 | CO[C@H]1CC[C@@H](Nc2nc(-c3nccn3C)nn3cc(-c4ccn(C(C)C)n4)c(C)c23)C1 (racemic) [Compound 1, rac 6-(1-Isopropyl-1H-pyrazol-3-yl)-N-((1R,3S)-3-methoxycyclopentyl)-5-methyl-2-(1-methyl-1H-imidazol-2-yl)pyrrolo[2,1-f][1,2,4]triazin-4-amine] | C* (46-84% activation) | 75 to 100% | 1 to 24% | 0 (0 = 0% inhibition) | A (A = 1-25% inhibition) | A (A = 1-25% inhibition) | 0 (0 = 0% inhibition) | 1 to 25%
3 | COc1cccc(-c2cn3nc(-c4nccn4C)nc(N[C@@H]4CC[C@@H](OC)C4)c3c2-c2ccccc2)c1Cl.Cl (racemic) [Compound 34, rac 6-(2-Chloro-3-methoxyphenyl)-N-((1R,3R)-3-methoxycyclopentyl)-2-(1-methyl-1H-imidazol-2-yl)-5-phenylpyrrolo[2,1-f][1,2,4]triazin-4-amine hydrochloride] | D (85-100% inhibition) | 75 to 100% | 1 to 24% | 0 (0 = 0% inhibition) | 0 (0 = 0% inhibition) | A (A = 1-25% inhibition) | 0 (0 = 0% inhibition) | 26 to 49%
4 | Cc1c(-c2ccn(C(C)C)n2)cn2nc(-c3nccn3C)nc(Nc3cc4n(n3)CCO4)c12 [Compound 91, N-(6-(1-Isopropyl-1H-pyrazol-3-yl)-5-methyl-2-(1-methyl-1H-imidazol-2-yl)pyrrolo[2,1-f][1,2,4]triazin-4-yl)-2,3-dihydropyrazolo[5,1-b]oxazol-6-amine] | D* (85-100% activation) | 1 to 24% | 1 to 24% | D (D = 76-100% inhibition) | D (D = 76-100% inhibition) | C (C = 50-75% inhibition) | D (D = 76-100% inhibition) | 76 to 100%
5 | COc1cccc(Nc2nc(-c3nccn3C)nn3cc(-c4ccn(C(C)C)n4)c(C)c23)n1 [Compound 7, 6-(1-Isopropyl-1H-pyrazol-3-yl)-N-(6-methoxypyridin-2-yl)-5-methyl-2-(1-methyl-1H-imidazol-2-yl)pyrrolo[2,1-f][1,2,4]triazin-4-amine] | 0 (0% inhibition) | 1 to 24% | 0% | 0 (0 = 0% inhibition) | A (A = 1-25% inhibition) | 0 (0 = 0% inhibition) | A (A = 1-25% inhibition) | 0%
6 | CCc1nc(Nc2nc(-c3nccn3C)nn3cc(-c4ccn(C(C)C)n4)c(C)c23)nn1C [Compound 76, N-(5-Ethyl-1-methyl-1H-1,2,4-triazol-3-yl)-6-(1-isopropyl-1H-pyrazol-3-yl)-5-methyl-2-(1-methyl-1H-imidazol-2-yl)pyrrolo[2,1-f][1,2,4]triazin-4-amine] | D* (85-100% activation) | 25 to 49% | 25 to 49% | 0 (0 = 0% inhibition) | C (C = 50-75% inhibition) | 0 (0 = 0% inhibition) | B (B = 26-49% inhibition) | 50 to 75%
7 | Cc1c(-c2ccn(C(C)C)n2)cn2nc(-c3nccn3C)nc(Nc3cn(C(C)C)nn3)c12 [Compound 78, N-(1-Isopropyl-1H-1,2,3-triazol-4-yl)-6-(1-isopropyl-1H-pyrazol-3-yl)-5-methyl-2-(1-methyl-1H-imidazol-2-yl)pyrrolo[2,1-f][1,2,4]triazin-4-amine] | D* (85-100% activation) | 25 to 49% | 25 to 49% | D (D = 76-100% inhibition) | D (D = 76-100% inhibition) | D (D = 76-100% inhibition) | D (D = 76-100% inhibition) | 76 to 100%
8 | COc1cnc(Nc2nc(-c3nccn3C)nn3cc(-c4ccn(C(C)C)n4)c(C)c23)cn1 [Compound 83, 6-(1-Isopropyl-1H-pyrazol-3-yl)-N-(5-methoxypyrazin-2-yl)-5-methyl-2-(1-methyl-1H-imidazol-2-yl)pyrrolo[2,1-f][1,2,4]triazin-4-amine] | D* (85-100% activation) | 25 to 49% | 1 to 24% | D (D = 76-100% inhibition) | D (D = 76-100% inhibition) | C (C = 50-75% inhibition) | D (D = 76-100% inhibition) | 76 to 100%
9 | COCc1csc(Nc2nc(-c3nccn3C)nn3cc(-c4ccn(C(C)C)n4)c(C)c23)n1 [Compound 79, N-(6-(1-Isopropyl-1H-pyrazol-3-yl)-5-methyl-2-(1-methyl-1H-imidazol-2-yl)pyrrolo[2,1-f][1,2,4]triazin-4-yl)-4-(methoxymethyl)thiazol-2-amine] | D* (85-100% activation) | 1 to 24% | 25 to 49% | C (C = 50-75% inhibition) | D (D = 76-100% inhibition) | B (B = 26-49% inhibition) | C (C = 50-75% inhibition) | 76 to 100%
10 | COC[C@@H]1CC[C@@H]1CNc1nc(-c2nccn2C)nn2cc(-c3ccn(C(C)C)n3)c(C)c12 (racemic) [Compound 3, rac 6-(1-Isopropyl-1H-pyrazol-3-yl)-N-(((1S,2R)-2-(methoxymethyl)cyclobutyl)methyl)-5-methyl-2-(1-methyl-1H-imidazol-2-yl)pyrrolo[2,1-f][1,2,4]triazin-4-amine] | B (26-49% inhibition) | 50 to 74% | 25 to 49% | 0 (0 = 0% inhibition) | 0 (0 = 0% inhibition) | 0 (0 = 0% inhibition) | 0 (0 = 0% inhibition) | 1 to 25%
11 | Cc1c(-c2ccn(C(C)C)n2)cn2nc(-c3nccn3C)nc(Nc3ccn(C4CC4)n3)c12 [Compound 84, N-(1-Cyclopropyl-1H-pyrazol-3-yl)-6-(1-isopropyl-1H-pyrazol-3-yl)-5-methyl-2-(1-methyl-1H-imidazol-2-yl)pyrrolo[2,1-f][1,2,4]triazin-4-amine] | D* (85-100% activation) | 25 to 49% | 0% |  |  |  |  | 76 to 100%
12 | COCCNc1nc(-c2nccn2C)nn2cc(-c3ccn(C(C)C)n3)c(C)c12 [Compound 5, 6-(1-Isopropyl-1H-pyrazol-3-yl)-N-(2-methoxyethyl)-5-methyl-2-(1-methyl-1H-imidazol-2-yl)pyrrolo[2,1-f][1,2,4]triazin-4-amine] | 0 (0% inhibition) | 0% | 0% |  |  |  |  | 26 to 49%
